According to patent US20040023840A1, “Combination of organic compounds” (priority 2003, published 2004):
Where two headings read alike, the source gives them in different places.

Experiments:
[1] = system: SHR with endothelial dysfunction; experiment: Survival of SHR with chronic NO synthase blockade (L-NAME), endothelial dysfunction model; format: in vivo, rat; settings: for survival rate: SHR + L-NAME 12 weeks; for kidney lesions / proteinuria: low doses of valsartan and enalapril
Description: Male 20-24 week-old SHR, purchased from RCC Ldt (Fullingsdorf, Switzerland), are maintained in a temperature- and light-controlled room with free access to rat chow (Nafag 9331, Gossau, Switzerland) and tap water. The experiment is p rformed in accordance with the NIH guidelines and approved by the Canton Veterinary office (Bew 161, Kantonales V t rin{overscore (a)}ramt, Liestal, Switzerland). All rats are treated with the NO synthase inhibitor L-NAME (Sigma Chemicals) administered in drinking water (50 mg/l) for 12 weeks. The average daily dose of L-NAME calculated from the water consumed was 2.5 mg/kg/d (range 2.1-2.7).
(§1) The rats are divided into 5 groups: group 1, control (n=40); Group 2, valsartan (val5, 5 mg/kg/d; n=40); Group 3, enalapril (ena1, 1 mg/kg/d; n=30); Group 4, a combination (ena1val5) of enalapril (1 mg/kg/d) and valsartan (5 mg/kg/d); n=30) and Group 5, valsartan (val50, 50 mg/kg/d; n=30). The drugs are administered in drinking fluid. […] The pressor effect of Ang II at […] obtained in controls normotensive rats is reduced by 49% and 73% after treatment with valsartan 5 and 50 mg/kg/d, respectively (Gervais et al. 1999). The response to Ang I injected in Wistar Kyoto rats pretreated with enalapril 1 mg/kg/d or valsartan 5 mg/kg/d is similar.
Body weight is measured every week. Systolic blood pressure and heart rate are recorded by tail cuff plethysmography 3 and 2 weeks before starting the study and at 2 weeks after drug administration. Urine is collected over a 24 hour period from rats kept in individual (metabolic) cages the week before starting treatment and at weeks 4 and 12 for volume measurement and protein, creatinine, sodium and potassium determination using standard laboratory methods. At the same time points, blood samples are withdrawn from the retro-orbital plexus (maximum 1 ml) for creatinine, Na^+ and K^+ assays.
Ten rats from each group are sacrificed at 4 weeks for collection of kidney and heart for morphological analysis. The remaining rats are sacrificed at 12 weeks. Cardiac and kidney weight is recorded. Terminal blood sampling is performed in 5% EDTA at 4 (morphometry study) and 12 (end of the study) weeks for aldosterone, determination by radioimmunoassay using a DPC coat-a-count aldosterone-RIA kit (Bühlmann, Switzerland).
All data are expressed as mean±SEM. Statistical analysis is performed using a one-way ANOVA, followed by a Duncan's multiple range test and a Newman-Keuls test, 7 for comparison between the different groups. Results with a probability value of less than 0.05 are deemed statistically significant.

response to Ang I = experiment: Response to Ang I injected in pretreated Wistar Kyoto rats; format: in vivo, rat; settings: Wistar Kyoto rats pretreated with enalapril 1 mg/kg/d or valsartan 5 mg/kg/d; the two compared
Description: as §1

pressor effect of Ang II = settings: Ang II at 1 mg/kg, normotensive rats, cited from earlier work
[2] = non-blood pressure reducing doses in drinking fluid: valsartan 5 mg/kg/d, enalapril 1 mg/kg/d, or both combined

CCOC(=O)[C@H](CCc1ccccc1)N[C@@H](C)C(=O)N1CCC[C@H]1C(=O)O [enalapril]
survival rate [1, 2]: 55% | kidney lesions ([1]; SHR + L-NAME): no reduction | proteinuria ([1]; SHR + L-NAME): no decrease | response to Ang I (response to Ang I): similar

CCCCC(=O)N(Cc1ccc(-c2ccccc2-c2nnn[nH]2)cc1)[C@H](C(=O)O)C(C)C [valsartan]
survival rate ([1]; high dose valsartan 50 mg/kg/d in drinking fluid): 95% | survival rate [1, 2]: 67% | kidney lesions ([1]; SHR + L-NAME): no reduction | proteinuria ([1]; SHR + L-NAME): no decrease | systolic blood pressure ([1]; SHR + L-NAME, valsartan 50 mg/kg, increase in blood pressure significantly attenuated): above 250 mmHg | response to Ang I (response to Ang I): similar | reduction of pressor effect of Ang II (pressor effect of Ang II; valsartan 5 mg/kg/d (Gervais et al. 1999)): 49% | reduction of pressor effect of Ang II (pressor effect of Ang II; valsartan 50 mg/kg/d (Gervais et al. 1999)): 73%
